Where a name gives a salt, the structure may show the parent alone.
Assays:
[1] = biological target: T1, His-tagged human Aurora A (Homo sapiens, UniProt O14965); assay: Aurora A inhibitory activity (IMAP fluorescence polarization); format: biochemical; conditions: 20 μM ATP, 30° C., 120 minutes
T1 construct: His (N); made in house; host or cells: Escherichia coli BL21-CodonPlus(DE3)-RIL
T1 sequence (O14965 1-403): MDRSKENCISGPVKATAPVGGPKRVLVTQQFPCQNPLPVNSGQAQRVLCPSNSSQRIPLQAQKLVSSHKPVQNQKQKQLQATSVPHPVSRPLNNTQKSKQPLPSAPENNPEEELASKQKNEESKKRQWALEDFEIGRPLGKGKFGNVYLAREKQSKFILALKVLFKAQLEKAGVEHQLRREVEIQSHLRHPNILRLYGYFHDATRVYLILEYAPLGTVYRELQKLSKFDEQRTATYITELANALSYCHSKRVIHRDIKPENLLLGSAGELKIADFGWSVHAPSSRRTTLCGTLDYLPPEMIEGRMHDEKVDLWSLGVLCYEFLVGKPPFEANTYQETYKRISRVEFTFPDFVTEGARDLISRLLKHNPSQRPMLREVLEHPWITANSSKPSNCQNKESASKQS
Text: cDNA of N-terminal His-tagged human Aurora A was integrated into an expression vector, which was then highly expressed in Escherichia coli BL21-CodonPlus(DE3)-RIL cells. The Escherichia coli was harvested and lysed, and then the His-tagged human Aurora A protein was applied onto a nickel chelate column and eluted from the column with imidazole. The active fractions were desalted with a desalting column to give a purified enzyme.
For measurement of the activity of Aurora A, the substrate used was a synthetic peptide (5-FAM (5-carboxyfluorescein)-γ-aminobutyric acid-Ala-Leu-Arg-Arg-Ala-Ser-Leu-Gly-NH2) (SEQ.ID.NO.: 1), which was purchased from Toray Research Center, Inc.
For the phosphorylation reaction, the method by Upstate, Inc. [Kinase Profiler™ Assay Protocols] was referred to, and phosphorylation of the substrate was detected using IMAP® technology (Molecular Devices, Co. Ltd.) (Gaudet E W. et. al, J. Biomol. Screen, 8, 164-175 (2003)). Concretely, the phosphorylation reaction and the detection were carried out as follows:
The phosphorylation reaction was conducted using 384 well plate, and the reaction volume was 10 μl/well. The reaction buffer is comprised of 50 mM Tris-chloride buffer (pH 7.4), 15 mM magnesium acetate, and 0.2 mM ethylenediamine-N,N,N′,N′-tetraacetic acid (EDTA). Thereto, the purified Aurora A protein, 100 nM of the peptide substrate, and 20 μM of adenosine 5′-triphosphate (ATP) were added, and then the reaction was carried out at 30° C. for 120 minutes.
Thereafter, in order to terminate and detect the reaction, 30 μl of the IMAP (registered trademark) binding reagent (IMAP Progressive Binding Reagent, R7284) that had been diluted (1:400) in the 1×IMAP binding buffer A (IMAP Progressive Binding Buffer A, 5× stock, R7282) was added to each well. The solution stood still for 60 minutes in the dark, and then fluorescence polarization was measured using a high-end microplate reader (excitation wavelength: 485 nm; emission wavelength: 520 nm).
(§1) The compound to be tested was added to the reaction system such that a dilution series of the compound in dimethylsulfoxide (DMSO) was prepared, and then 0.5 μL of this solution was added for the testing to each well. Each control well was provided by adding 0.5 μL of DMSO to the well in place of the DMSO solution containing the compound to be tested.

[2] = biological target: T2, GST-tagged human Aurora B(AurB)/His-tagged human INCENP complex proteins (Homo sapiens, UniProt Q96GD4); assay: Aurora B inhibitory activity (Method A, IMAP kit); format: biochemical; conditions: 40 μM ATP, 25° C., 45 minutes
T2 construct: GST; purchased Carna Biosciences, Inc
T2 sequence (Q96GD4 whole entry): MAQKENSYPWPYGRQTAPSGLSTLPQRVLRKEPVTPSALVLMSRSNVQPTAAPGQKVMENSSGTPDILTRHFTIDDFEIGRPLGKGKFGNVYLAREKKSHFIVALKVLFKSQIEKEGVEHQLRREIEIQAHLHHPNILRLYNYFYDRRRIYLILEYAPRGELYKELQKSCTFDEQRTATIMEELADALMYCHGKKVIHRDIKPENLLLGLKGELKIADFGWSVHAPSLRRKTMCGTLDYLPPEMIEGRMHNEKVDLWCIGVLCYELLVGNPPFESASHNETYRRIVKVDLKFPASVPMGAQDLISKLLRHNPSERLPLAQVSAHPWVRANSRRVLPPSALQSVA
T2 sequence (Q9NQS7 803-916 partner limits assumed): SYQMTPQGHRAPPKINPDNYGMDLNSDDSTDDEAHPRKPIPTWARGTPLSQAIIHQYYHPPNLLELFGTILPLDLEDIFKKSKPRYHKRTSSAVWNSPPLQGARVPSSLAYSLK
Description: An assay development kit for IMAP (registered trademark) (Aurora B), purchased from Carna Biosciences, Inc., was used for phosphorylation reaction, and the phosphorylation of a substrate was detected using the IMAP technology. The assay development kit used is comprised of an assay buffer, GST-tagged human Aurora B(AurB)/His-tagged human INCENP complex proteins (amino acid sequence: 803-916, AAU04398.1), and an ATP/substrate solution. Using the same, the phosphorylation reaction was conducted in accordance with a partially revised protocol attached to the kit, and then the phosphorylation of the substrate was detected using the IMAP technology.
For the phosphorylation reaction, 384 well plate was used, and the reaction volume was 10 μl/well. The composition of the reaction buffer (assay buffer) is comprised of 20 mM of HEPES buffer (pH 7.4), 0.01% Tween-20, and 2 mM of dithiothreitol (DTT). Thereto, AurB/INCENP complex protein, 100 nM of the substrate, and 40 μM of ATP, and 1 mM of magnesium salt were added, and then the reaction was conducted at 25° C. for 45 minutes. Thereafter, in order to terminate and detect the reaction, 30 μl of the IMAP (registered trademark) binding reagent (IMAP Progressive Binding Reagent, R7284) that had been diluted (1:400) in the 1×IMAP binding buffer A (IMAP Progressive Binding Buffer A, 5× stock, R7282) was added to each well. The solution stood still for 60 minutes in the dark, and then fluorescence polarization was measured using a high-end microplate reader (excitation wavelength: 485 nm; emission wavelength: 520 nm).
as §1, with “DMSO” for “dimethylsulfoxide (DMSO)”

[3] = test system: Human cervical cancer cells (HeLa S3); assay: Cell growth inhibitory effect, WST-8 method; format: cell-based; conditions: 72 h, HeLa S3, three days incubation, read-out: Cell growth inhibitory effect (HeLaS3) (IC50)
Description: Fetal calf serum (FCS) was purchased from Moregate Biotech, and DMEM medium was purchased from Invitrogen Corp. WST-8 was purchased from Kishida Chemical Co., Ltd.
Human cervical cancer cells (HeLa S3) were obtained from the American Type Culture Collection (ATCC).
Cells were suspended in a DMEM medium containing 10% FCS, and the cell suspension was dispensed to a 96-well plastic plate at a rate of 750 cells/100 microliters per well. The plate was incubated overnight in 5% CO2-95% air at 37° C. A drug was subjected to graded dilution in dimethylsulfoxide and further diluted with a DMEM medium containing 10% FCS. Then, the dilution was dispensed to the plate on which cells had been disseminated, at a rate of 100 microliters per well. The plate was incubated for further three days in 5% CO2-95% air at 37° C. Cell growth after incubation was measured by the WST-8 method (H. Tominaga, et al., Anal. Commun., 36, 47-50 (1999)). Here, the WST-8 method refers to a method in which 20 microliters of a WST-8 reagent solution is added to each well, incubation is conducted at 37° C. for 60 minutes, the plate is stirred, and the amount of formazan produced is measured by a colorimetric method to determine the inhibitory rate of the drug. The concentration for 50% growth inhibition (IC50, μM) of the compound was determined.

Cl.O=C(c1cccc(Cl)c1F)N1CCC(O)(Cc2cccc(Nc3cc[nH]n3)n2)CC1 [Example 2, 1-(3-chloro-2-fluorobenzoyl)-4-((6-(1H-pyrazol-3-ylamino)pyridin-2-yl)methyl)piperidin-4-ol hydrochloride]
IC50 [1]: 0.91 nM | IC50 [2]: 369 nM | IC50 [3]: 780 nM

O=c1[nH]nc(C2(Cc3cccc(Nc4cc[nH]n4)n3)CCN(S(=O)(=O)c3ccccc3C(F)(F)F)CC2)o1 [Example 14, 5-(4-((6-(1H-pyrazol-3-ylamino)pyridin-2-yl)methyl)-1-((2-(trifluoromethyl)phenyl)sulfonyl)piperidin-4-yl)-1,3,4-oxadiazol-2(3H)-one trifluoroacetate]
IC50 [1]: 0.4 nM | IC50 [2]: > 1000 nM | IC50 [3]: 1730 nM

O=c1[nH]nc(C2(Cc3cccc(Nc4cc[nH]n4)n3)CCN(C(c3cccc(C(F)(F)F)c3)C(F)(F)F)CC2)o1 (stereo not drawn) [Example 19, 5-(4-((6-(1H-pyrazol-3-ylamino)pyridin-2-yl)methyl)-1-(2,2,2-trifluoro-1-(3-(trifluoromethyl)phenyl)ethyl)piperidin-4-yl)-1,3,4-oxadiazol-2(3H)-one trifluoroacetate]
IC50 [1]: 1.27 nM | IC50 [2]: > 1000 nM | IC50 [3]: 1010 nM

From patent publication US8519136B2, “Aminopyridine derivatives having aurora a selective inhibitory action” (MSD K.K., priority 2008, dated 2013)
